From US4164571A, “Medicament which antagonizes the action of gastrin and related polypeptides” (Commissariat a l'Energie Atomique, priority 1976, dated 1979)
Like-named read-outs stand apart in the source and are kept apart here.

How the values were obtained:
[1] = tested on: stimulated secretion of gastric juice; assay: stimulated gastric acid secretion in anaesthetised perfused rats (Ghosh and Schild, modified by Lai), intravenous injection; type: in vivo, rat; conditions: for % inhibition of gastrin I stimulated acid secretion / % inhibition of pentagastrin stimulated acid secretion: i.v.
Protocol: A first series of experiments was carried out on male Wistar rats weighing 300 to 325 g. The procedure used was that of Ghosh and Schild, modified by Lai. The rats fasted for the 18 hours preceding the test. On the day of the test the rats were anaesthesized with urethane by the intraperitoneal route at a rate of 1.20 g of urethane per kilogramme. The rectal temperature was maintained at 34°±1° C. by means of an anal probe connected to a thermometer which electronically controlled the lighting up of a 100 Watt lamp positioned above each rat. An oesophageal probe (polyethylene catheter) was introduced up to the oesophagus--rumen junction of the rat and another catheter was introduced into the pyloric opening via the duodenum. The stomach was perfused with a solution of physiological serum introduced by means of the oesophageal tube at a constant speed of 1 ml/mn and was collected every ten minutes by the pyloroduodenal probe.
The rats prepared in this way were left to rest for a period of at least 45 minutes. The perfusate sampled every 10 minutes was then determined by means of a 0.01 N soda solution at pH 8.45, corresponding to a phenolphthalein colour change or at pH 7.4 with an automatic titration apparatus at constant pH.
After determining the basal acid secretion of the gastric juice on at least four consecutive samples a dose of gastrin was intravenously administered to the rats in the vein of the penis and subsequently the response to this stimulation was recorded until the secretion returned to the basal level over a period of at least twice 10 minutes. […] The results are expressed in microequivalents of hydrochloric acid per 40 minutes and are calculated as follows: either as the number of secreted microequivalents after stimulation less the number of microequivalents secreted in the 40 minutes prior to the injection of the dose, or as an acid peak, i.e., taking the average of the two consecutive maximum responses for each dose less the average value for the two basal values preceding the injection.
The transformation into double inverse makes it possible by analogy with enzymatic reactions to conclude whether the inhibition is of the competitive type or not.

[2] = tested on: stimulated secretion of gastric juice; assay: gastric acid secretion in rats under continuous intravenous perfusion; type: in vivo, rat
Protocol: In a second series of experiments an intravenous perfusion of an isotonic solution of […] sodium chloride was administered at a rate of 2.4 ml/h to rats prepared in the manner indicated hereinbefore according to the procedure of Ghosh and Schild, modified by Lai. This perfusion was administered to the vein of the penis.
The rats prepared in this manner were left at rest for at least 45 minutes, then the acidity was determined as hereinbefore on the gastric perfusate sampled every 10 minutes. […] At the end of the first hour a dose of gastrin I was added to the perfusion. The results obtained are given in FIG. 5a showing the variations of the gastric secretion as a function of time.

mice = conditions: for number of death cases: group of ten mice
Excerpt: All the dead or surviving animals are autopsied, the stomach and the small intestine are examined for heamorrhages or ulcers.

With “orthonitrophenyl sulphenylated gastrin I [gastrin I-NPS]” the “type of inhibition of gastrin I response (double inverse representation)” value ([1]; 100 or 200 ng gastrin I-NPS with each dose of gastrin I) was “inhibition is competitive”, the “% inhibition of gastrin I stimulated acid secretion” value ([1]; ratio gastrin I-NPS/gastrin I 1/1, 50 ng gastrin NPS with 50 ng gastrin I) was 100% and the “% inhibition of gastrin I stimulated acid secretion” value ([1]; ratio gastrin I-NPS/gastrin I 1/2, 50 ng gastrin NPS with 100 ng gastrin I) was 75%. The “% inhibition of gastrin I stimulated acid secretion” value ([1]; ratio gastrin I-NPS/gastrin I 1/3, 50 ng gastrin NPS with 150 ng gastrin I) was 65%, the “% inhibition of gastrin I stimulated acid secretion” value ([1]; ratio gastrin I-NPS/gastrin I 1/4, 50 ng gastrin NPS with 200 ng gastrin I) was less than 35% and the “time until stimulated secretion plateau after introduction of gastrin I” value ([2]; 100 ng/h gastrin I-NPS with 200 ng/h gastrin I, plateau at a lower level) was 30 min. For the same molecule, the “time until stimulated secretion plateau after introduction of gastrin I” value ([2]; 100 ng/h gastrin I-NPS with 400 ng/h gastrin I, plateau reaches the level of 100 ng/h gastrin I) was 40 min and the “secretory response to the substance alone” value ([2]; 100 ng/h in intravenous perfusion) was “causes no secretory response”.
In the case of “Boc-Gly-Trp-(NPS)-Met-Aspe-Phe-NH2 [pentagastrin-NPS]”, the “number of death cases” value (mice; 1280 μg/kg i.p., 24 h) was 1, the “petechiae at autopsy” value (mice; 2560 μg/kg i.p.) was “a few petechiae are observed” and the “number of death cases” value (mice; 2560 μg/kg i.p., 6 h) was 1. The “number of death cases” value (mice; 2560 μg/kg i.p., 24 h) was 1, the “number of death cases” value (mice; 2560 μg/kg i.p., 48 h) was 2 and the “digestive hemorrhage at autopsy” value (mice; 160 to 2560 μg/kg i.p.) was “does not lead to any digestive hemorrhage”. For the same molecule, the “doses leading to no modifications (petechiae) of the stomach and of the intestine” value (mice; i.p.) was “under 2,5 mg/kg”, the “inhibition of pentagastrin action” value ([1]; pentagastrin-NPS associated with pentagastrin) was “inhibits the pentagastrin action” and the “% inhibition of pentagastrin stimulated acid secretion” value ([1]; ratio pentagastrin-NPS/pentagastrin 1/1, 50 ng pentagastrin-NPS with 50 ng pentagastrin) was 100%. The “% inhibition of pentagastrin stimulated acid secretion” value ([1]; ratio pentagastrin-NPS/pentagastrin 1/2, 50 ng pentagastrin-NPS with 100 ng pentagastrin) was 100%, the “% inhibition of pentagastrin stimulated acid secretion” value ([1]; ratio pentagastrin-NPS/pentagastrin 1/3, 50 ng pentagastrin-NPS with 150 ng pentagastrin) was 75% and the “% inhibition of pentagastrin stimulated acid secretion” value ([1]; ratio pentagastrin-NPS/pentagastrin 1/4, 50 ng pentagastrin-NPS with 200 ng pentagastrin) was less than 20%.
`CSCC[C@H](NC(=O)[C@H](Cc1c[nH]c2ccccc12)NC(=O)CCNC(=O)OC(C)(C)C)C(=O)N[C@@H](CC(=O)O)C(=O)N[C@@H](Cc1ccccc1)C(N)=O` [pentagastrin, Boc-Gly-Trp-Met-Asp-phe-NH2, reference compound] was tested, and the “number of death cases” value (mice; 1280 μg/kg i.p., 2 h) was 1, the “number of death cases” value (mice; 1280 μg/kg i.p., 6 h) was 1 and the “number of death cases” value (mice; 2560 μg/kg i.p., 2 h) was 2. For the same molecule, the “number of death cases” value (mice; 2560 μg/kg i.p., 48 h) was 1, the “dose at which digestive hemorrhages are observed” value (mice; i.p., importance increases with the dose) was no less than 0.32 mg/kg and the “LD 50” value (mice; i.p., logit-log paper) was “higher than 3.2 mg/kg”.
